Experimental data reported in patent US8183263B2 (priority 2007, dated 2012).

Each compound was assayed on HCV replicon (assay: HCV replicon replication assay (NPT level by captured ELISA)). Conditions: Hepatitis C virus, 72 h; Huh-7 HCV replicon-containing cells, three days incubation; read-out: Activity (inhibition of HCV replicon replication).
Format: cell-based
Procedure: Compounds claimed herein are tested for the ability to inhibit viral replication of the Hepatitis C replicon in cultured cells in which the HCV replicon construct has been incorporated. The HCV replicon system was described by Bartenschlager, et. al (Science, 285, pp. 110-113 (1999)). The replicon system is predictive of in vivo anti-HCV activity; compounds that are active in humans uniformly evidence activity in the replicon assay.
In this assay HCV replicon containing cells are treated with different concentrations of the test compound to ascertain the ability of the test compound to suppress replication of the HCV replicon. As a positive control, HCV replicon-containing cells are treated with different concentrations of interferon alpha, a known inhibitor of HCV replication. The replicon assay system includes Neomycin Phosphotransferase (NPT) as a component of the replicon itself in order to detect the transcription of replicon gene products in the host cell. Cells in which the HCV replicon is actively replicating have high levels of NPT; the level of NPT is proportional to HCV replication. […] The NPT level of each sample is measured using a captured ELISA.
A protocol for testing compounds for the ability to inhibit viral replication of the Hepatitis C replicon cultured cells in which the replicon construct has been incorporated, follows.
The HCV replicon contains, 5′-3′, the HCV-IRES, the neomycin phosphotransferase (neo) gene, the IRES of encephalomyocarditis virus, which directs translation of HCV sequences NS3 to NS5B, and the 3′-NTR. The sequence of the HCV replicon has been deposited in GenBank (Accession no. AJ242652).
The replicon is transfected into Huh-7 cells using standard methods such as electroporation.
The equipment and materials include, but are not limited to, Huh-7 HCV replicon-containing cells, maintenance media (DMEM (Dulbecco's modified Eagle media) supplemented with 10% FBS, L-glutamine, non-essential amino acids, penicillin (100 units/ml), streptomycin (100 micrograms/ml), and 500 micrograms/ml of Geneticin (G418), screening media (DMEM supplemented with 10% FBS, L-glutamine, non-essential amino acids, penicillin (100 units/ml) and streptomycin (100 micrograms/ml)), 96 well tissue culture plates (flat bottom), 96 well plates (U bottom for drug dilution), Interferon alpha for positive control, fixation reagent (such as methanol: acetone), primary antibody (rabbit anti-NPTII), secondary antibody: Eu—N1 1, and enhancement solution.
HCV replicon-containing cells are rinsed with once PBS once; 2 mls of trypsin are then added. Cells are incubated at 37° C. in a 5% CO2 incubator for 3-5 minutes. 10 mls of complete medium is added to stop the reaction. Cells are blown gently, put into a 15 ml tube, and spun at 1200 rpm for four minutes. The trypsin/medium solution is removed and 5 mls of medium (500 ml DMEM (high glucose)) from BRL catalog #12430-054; 50 mls 10% FBS, 5% Geneticin G418 (50 mg/ml, BRL catalog #10131-035), 5 ml MEM non-essential amino acids (100×BRL #11140-050) and 5 ml pen-strep (BRL #15140-148) is added. The cells and media are mixed carefully
Cells are plated with screening medium (500 ml DMEM (BRL #21063-029), 50 ml FBS (BRL #10082-147) and 5 ml MEM non-essential amino acid (BRL #11140-050) at 6000-7500 cells/100 μl/well of 96 well plate (6-7.5×10^5 cells/10 ml/plate). Plates are placed into 37° C. 5% CO2 incubator overnight.
The following morning, drugs (test compounds or interferon alpha) are diluted in 96 well U bottom plates with media or DMSO/media, depending on the final concentration chosen for screening. Generally for 6 concentrations of each test compounds ranging from 10 micromolar to 0.03 micromolar are applied. 100 μl of the test compound dilution is placed in wells of the 96 well plate containing the HCV replicon cells. Media without drug is added to some wells as a negative controls. DMSO is known to affect cell growth. […]

Row | SMILES | EC50
1 | CCCCCCCCOc1ccc(N(C)c2nc(-c3cccnc3)c(F)s2)cc1C(F)(F)F [Cmp 159, 5-fluoro-N-methyl-N-(4-(octyloxy)-3-(trifluoromethyl)phenyl)-4-(pyridin-3-yl)thiazol-2-amine] | < 1000 nM
2 | CCCCCCCCOc1ccc(N(N)c2nc(-c3cccnc3)c(F)s2)cc1C(F)(F)F [Cmp 120, 5-fluoro-2-(1-(4-(octyloxy)-3-(trifluoromethyl)phenyl)hydrazinyl)-4-(pyridin-3-yl)thiazole] | < 1000 nM
3 | CCCCCCCCOc1cc(Nc2nc(-c3cccnc3)cs2)ccc1C [Cmp 25, N-(4-methyl-3-(octyloxy)phenyl)-4-(pyridin-3-yl)thiazol-2-amine] | < 1000 nM
4 | CCCCCCCCOc1ccc(Nc2nc(-c3cccnc3)cs2)cc1S(C)(=O)=O [Cmp 151, N-(3-(methylsulfonyl)-4-(octyloxy)phenyl)-4-(pyridin-3-yl)thiazol-2-amine] | < 1000 nM
5 | CCCCCc1nc2cc(Nc3nc(-c4cccnc4)cs3)ccc2o1 [Cmp 64] | < 1000 nM
6 | CCCCCCCCc1ccc(N(C)c2nc(-c3cccnc3)c(F)s2)cc1C(F)(F)F [Cmp 160, 5-fluoro-N-methyl-N-(4-octyl-3-(trifluoromethyl)phenyl)-4-(pyridin-3-yl)thiazol-2-amine] | 1000 to 10000 nM
7 | CCCCCCCCc1ccc(Nc2nc(-c3ccc[n+](O)c3)c(F)s2)cc1 [Cmp 39, 5-fluoro-N-(4-octylphenyl)-4-(pyridine-1-oxide-3-yl)thiazol-2-amine] | < 1000 nM
8 | CCCCCCCCc1ccc(Nc2nc(-c3cncc(C#N)c3)c(F)s2)cc1C(F)(F)F [Cmp 182, 5-(5-fluoro-2-(4-octyl-3-(trifluoromethyl)phenylamino)thiazol-4-yl)nicotinonitrile] | < 1000 nM
9 | COc1ncc(-c2csc(Nc3ccc(Oc4ccccc4)c(C(F)(F)F)c3)n2)cn1 [Cmp 51, 4-(2-methoxypyrimidin-5-yl)-N-(4-phenoxy-3-(trifluoromethyl)phenyl)thiazol-2-amine] | < 1000 nM
10 | CCCCCCCCc1ccc(Nc2nc(-c3cccnc3)c(F)s2)cc1 [Cmp 31, 5-fluoro-N-(4-octylphenyl)-4-(pyridin-3-yl)thiazol-2-amine] | < 1000 nM
11 | CCCCCCCCOc1ccc(Nc2nc(-c3cccnc3)c(Cl)s2)cc1C(C)=O [Cmp 169, 1-(5-(5-chloro-4-(pyridin-3-yl)thiazol-2-ylamino)-2-(octyloxy)phenyl)ethanone] | < 1000 nM
12 | N#Cc1ccc(Oc2ccc(Nc3nc(-c4cccnc4)cs3)cc2C(F)(F)F)cc1 [Cmp 48, 4-(4-(4-(pyridin-3-yl)thiazol-2-ylamino)-2-(trifluoromethyl)phenoxy)benzonitrile] | < 1000 nM
13 | Cc1ccc(OCCCc2ccc(Nc3nc(-c4cccnc4)c(F)s3)cc2C(F)(F)F)cc1 [Cmp 127, 5-fluoro-4-(pyridin-3-yl)-N-(4-(3-(p-tolyloxy)propyl)-3-(trifluoromethyl)phenyl)thiazol-2-amine] | < 1000 nM
14 | CCCCCc1nc2cc(Nc3nc(-c4cnc(OC)nc4)c(F)s3)ccc2o1 [Cmp 56, N-(5-fluoro-4-(2-methoxypyrimidin-5-yl)thiazol-2-yl)-2-pentylbenzo[d]oxazol-5-amine] | < 1000 nM
15 | Cc1ccc(Nc2nc(-c3ccc(F)cc3)cs2)cc1OCC1CCCCC1 [Cmp 42, N-(3-(cyclohexylmethoxy)-4-methylphenyl)-4-(4-fluorophenyl)thiazol-2-amine] | < 1000 nM
16 | CC(=O)c1cc(Nc2nc(-c3cccnc3)c(F)s2)ccc1Oc1ccccc1 [Cmp 81, 1-(5-(5-fluoro-4-(pyridin-3-yl)thiazol-2-ylamino)-2-phenoxyphenyl)ethanone] | < 1000 nM

Row | SMILES | EC50
17 | CCCCCCCCOc1ccc(Nc2nc(-c3ccc[n+](C)c3)cs2)cc1C(F)(F)F [Cmp 142, 1-methyl-3-(2-(4-(octyloxy)-3-(trifluoromethyl)phenylamino)thiazol-4-yl)pyridinium] | 1000 to 10000 nM
18 | CCCCCCCCOc1ccc(Nc2nc(-c3cnc4[nH]c(=O)[nH]c4c3)cs2)cc1C(F)(F)F [Cmp 187, 6-(2-(4-(octyloxy)-3-(trifluoromethyl)phenylamino)thiazol-4-yl)-1H-imidazo[4,5-b]pyridin-2(3H)-one] | < 1000 nM
19 | Cc1ccc(Nc2nc(-c3cccnc3)c(F)s2)cc1OCC1CCCCC1 [Cmp 59, N-(3-(cyclohexylmethoxy)-4-methylphenyl)-5-fluoro-4-(pyridin-3-yl)thiazol-2-amine] | < 1000 nM
20 | FC(F)(F)c1cc(Nc2nc(-c3cccnc3)cs2)ccc1OC1Cc2ccccc2C1 [Cmp 171, N-(4-(2,3-dihydro-1H-inden-2-yloxy)-3-(trifluoromethyl)phenyl)-4-(pyridin-3-yl)thiazol-2-amine] | < 1000 nM
21 | Fc1sc(Nc2ccc(CCCCCCCCCl)c(C(F)(F)F)c2)nc1-c1cccnc1 [Cmp 231, N-(4-(8-chlorooctyl)-3-(trifluoromethyl)phenyl)-5-fluoro-4-(pyridin-3-yl)thiazol-2-amine] | < 1000 nM
22 | CCCCCCCCOc1ccc(Nc2ncc(Br)s2)cc1C(F)(F)F [Cmp 143, 5-bromo-N-(4-(octyloxy)-3-(trifluoromethyl)phenyl)thiazol-2-amine] | < 1000 nM
23 | Fc1sc(Nc2ccc(CCCOc3ccc(Cl)cc3)c(C(F)(F)F)c2)nc1-c1cccnc1 [Cmp 104, N-(4-(3-(4-chlorophenoxy)propyl)-3-(trifluoromethyl)phenyl)-5-fluoro-4-(pyridin-3-yl)thiazol-2-amine] | < 1000 nM
24 | Cc1ccc(Nc2nc(-c3cccnc3)c(F)s2)cc1OCCOc1ccccc1 [Cmp 58, 5-fluoro-N-(4-methyl-3-(2-phenoxyethoxy)phenyl)-4-(pyridin-3-yl)thiazol-2-amine] | < 1000 nM
25 | CCCCCCCCc1c(F)cc(Nc2nc(-c3cccnc3)cs2)cc1F [Cmp 94, N-(3,5-difluoro-4-octylphenyl)-4-(pyridin-3-yl)thiazol-2-amine] | < 1000 nM
26 | CCCCCCCCc1ccc(Nc2nc(-c3cnccn3)c(Cl)s2)cc1C(F)(F)F [Cmp 170, 5-chloro-N-(4-octyl-3-(trifluoromethyl)phenyl)-4-(pyrazin-2-yl)thiazol-2-amine] | < 1000 nM
27 | Cc1ccc(CCCCOc2ccc(Nc3nc(-c4cccnc4)c(Cl)s3)cc2C(F)(F)F)cc1 [Cmp 109, 5-chloro-4-(pyridin-3-yl)-N-(4-(4-p-tolylbutoxy)-3-(trifluoromethyl)phenyl)thiazol-2-amine] | < 1000 nM
28 | CCCCCCCCOc1ccc(Nc2nc(-c3cnc(OC)nc3)c(CN(C)C)s2)cc1C(F)(F)F [Cmp 121, 5-((dimethylamino)methyl)-4-(2-methoxypyrimidin-5-yl)-N-(4-(octyloxy)-3-(trifluoromethyl)phenyl)thiazol-2-amine] | 1000 to 10000 nM
29 | CCCCCCCCC1Cc2ccc(Nc3nc(-c4cccnc4)cs3)cc2O1 (centres unmarked) [Cmp 123, N-(2-octyl-2,3-dihydrobenzofuran-6-yl)-4-(pyridin-3-yl)thiazol-2-amine] | < 1000 nM
30 | CCCCCc1nc2cc(Nc3nc(-c4cccnc4)c(F)s3)ccc2o1 [Cmp 65, N-(5-fluoro-4-(pyridin-3-yl)thiazol-2-yl)-2-pentylbenzo[d]oxazol-5-amine] | < 1000 nM
31 | CCCCCCCCc1cc2cc(Nc3nc(-c4cccnc4)cs3)ccc2o1 [Cmp 106, N-(2-octylbenzofuran-5-yl)-4-(pyridin-3-yl)thiazol-2-amine] | < 1000 nM
32 | CCCCCOc1cc(Nc2nc(-c3cccnc3)c(F)s2)ccc1C(F)(F)F [Cmp 79, 5-fluoro-N-(3-(pentyloxy)-4-(trifluoromethyl)phenyl)-4-(pyridin-3-yl)thiazol-2-amine] | 1000 to 10000 nM
